Source: publication PMC11243149, “Assessing the Effects of Thiazole-Carboxamide Derivatives on the Biophysical Properties of AMPA Receptor Complexes as a Potential Neuroprotective Agent” (Molecules, 2024)
Like-named read-outs stand apart in the source and are kept apart here.

How the values were obtained:
Assay type in all cases: cell-based
[1] = system: AMPAR subunits (GluA1, GluA1/2, GluA2, and GluA2/3); experiment: Whole-cell patch-clamp recordings, statements over all tested AMPAR subunits; conditions: for reduction in τw des: across all examined subunits; for increase in τw deact / decrease in AMPAR subunit activity (inhibition of the whole-cell current): all tested subunits; for increase in τw deact: 10 mM glutamate for 1 ms; for decrease in AMPAR subunit activity (inhibition of the whole-cell current): 10 mM glutamate, 500 ms protocol
Method: (§1) The effect of five TC compounds on whole-cell currents of four AMPAR subunits (GluA1, GluA1/2, GluA2, and GluA2/3) was investigated using transfected HEK293T cells. Each compound was applied separately to each subunit, with experiments conducted on 8–10 cells per condition to ensure reproducibility. […] At a glutamate concentration of 10 mM and a 500 ms protocol, approximately 95% of AMPAR channels were open. The A/AI ratio was calculated to compare the results, where A represents normalized current readings and AI indicates the inhibited current following TC compound exposure. […] Following closely, TC-1 inhibited the tested subunits by 5-fold.
A thorough investigation was performed to assess the neuroprotective potential of the TC compounds. The influence of the five TC compounds on the desensitization traces is seen in Figure 4, namely in panels b, d, f, and h. TC-2 caused a substantial reduction in τw des in all receptor subunits, with decreases ranging from 2 to 3 times.
(§2) In addition, an evaluation was conducted on the deactivation rates (τw deact) of all the examined chemicals to investigate their impact on the kinetics of deactivation. The chemicals were assessed for their effect on the deactivation kinetics of AMPAR subunits by briefly administering 10 mM glutamate for 1 ms to begin currents. This experimental setup allowed for the observation of τw deact under controlled conditions. […] TC-5 induced an approximately 2-fold increase in τw deact across all four tested subunits. […] These findings highlight the differential impact of TC compounds on deactivation kinetics across AMPAR subunits, shedding light on their potential neuroprotective mechanisms.
(§3) The flip isoform was uniformly employed across all AMPAR subunits in this study. These subunits were subcloned into the pRK vector and expressed in Human Embryonic kidney cells sourced (Sigma, München, Germany). HEK293T cells were grown in Dulbecco Modified Eagle Medium (DMEM) (Sigma, München, Germany) containing 10% FBS (fetal bovine serum), 0.1 mg/mL streptomycin, and 1 mM sodium pyruvate (Biological Industries; Beit-Haemek, Israel). HEK293T cells were incubated at 37 °C and 5% CO2 was supplemented to the medium. It was subcultured twice a week until cells reached pass #20. The transfection reagent used was either jetPRIME (Polyplus: New York, NY, USA) or Lipofectamine 2000 (Invitrogen; San Diego, CA, USA). Cells were kept for 36 h. after transfection in 12-well plates. Then, they were replated on coverslips coated with Laminin (1 mg/mL; Sigma, Germany) for electrophysiology recordings. Cells were then seeded in Petri dishes in DMEM supplemented with 10% fetal calf serum and antibiotics and maintained in a humidified incubator at 37 °C and 5% CO2. Highly fluorescent cells were identified and selected for recording post-transfection.
(§4) HEK293T cells were recorded for 36–48 h, at a temperature of 22 °C, with a membrane potential of −60 mV. HEK293T cells were recorded 36–48 h after transfection using IPA (Integrated Patch Amplifier) via the […], at a temperature of 22 °C, with a membrane potential of −60 mV. SutterPatch Software v. 1.1.1 (Sutter Instruments, Novato, CA, USA) was used to digitize membrane currents for a short period. The sampling frequency was set to 10 kHz, and the low-pass filter was set to 2 kHz. Borosilicate glass was used to fabricate the patch electrodes with a resistance of 2–4 MΩ. The extracellular solution contained the following (values are in mM): 150 NaCl, 2.8 KCl, 0.5 MgCl2, 2 CaCl2, and 10 HEPES, adjusted to pH 7.4 with NaOH. The pipette solution contained the following (values are in mM): 110 CsF, 30 CsCl, 4 NaCl, 0.5 CaCl2, 10 […], and 10 HEPES, adjusted to pH 7.2 with CsOH. Using double barrel glass (theta tube), glutamate and the solutions of choice were rapidly administered, and the theta tube was mounted on a high-speed piezo solution switcher (Automate Scientific, Berkeley, CA, USA). […]

[2] = target: T1, GluA2/3 (Homo sapiens, UniProt P42262+P42263); experiment: Whole-cell patch-clamp recordings of heteromeric GluA2/3 AMPAR in transfected HEK293T cells; conditions: for Amplitude (glutamate plus TC compound): 10 mM glutamate + TC compound (12 µM optimal concentration), HEK293T, -60 mV, pH 7.4, 22 °C, mean ± SEM; for Amplitude (glutamate plus TC compound) / Amplitude, applying glutamate alone after TC compound: n = 10; for Amplitude, applying glutamate alone after TC compound: 10 mM glutamate alone after 20 s wash following the TC compound; for A/AI: ratio of current with glutamate alone (A) to inhibited current after TC compound (AI); for t deact: weighted tau of deactivation, 10 mM glutamate for 1 ms, glutamate alone 2.6±0.3; for t deact / t des: with TC compound; for t des: weighted tau of desensitization, 10 mM glutamate 500 ms, glutamate alone 2.7±0.2
T1 construct: expressed in transfected cells; host or cells: HEK293T
T1 sequence (P42262 25-883 isoform P42262-2 limits assumed): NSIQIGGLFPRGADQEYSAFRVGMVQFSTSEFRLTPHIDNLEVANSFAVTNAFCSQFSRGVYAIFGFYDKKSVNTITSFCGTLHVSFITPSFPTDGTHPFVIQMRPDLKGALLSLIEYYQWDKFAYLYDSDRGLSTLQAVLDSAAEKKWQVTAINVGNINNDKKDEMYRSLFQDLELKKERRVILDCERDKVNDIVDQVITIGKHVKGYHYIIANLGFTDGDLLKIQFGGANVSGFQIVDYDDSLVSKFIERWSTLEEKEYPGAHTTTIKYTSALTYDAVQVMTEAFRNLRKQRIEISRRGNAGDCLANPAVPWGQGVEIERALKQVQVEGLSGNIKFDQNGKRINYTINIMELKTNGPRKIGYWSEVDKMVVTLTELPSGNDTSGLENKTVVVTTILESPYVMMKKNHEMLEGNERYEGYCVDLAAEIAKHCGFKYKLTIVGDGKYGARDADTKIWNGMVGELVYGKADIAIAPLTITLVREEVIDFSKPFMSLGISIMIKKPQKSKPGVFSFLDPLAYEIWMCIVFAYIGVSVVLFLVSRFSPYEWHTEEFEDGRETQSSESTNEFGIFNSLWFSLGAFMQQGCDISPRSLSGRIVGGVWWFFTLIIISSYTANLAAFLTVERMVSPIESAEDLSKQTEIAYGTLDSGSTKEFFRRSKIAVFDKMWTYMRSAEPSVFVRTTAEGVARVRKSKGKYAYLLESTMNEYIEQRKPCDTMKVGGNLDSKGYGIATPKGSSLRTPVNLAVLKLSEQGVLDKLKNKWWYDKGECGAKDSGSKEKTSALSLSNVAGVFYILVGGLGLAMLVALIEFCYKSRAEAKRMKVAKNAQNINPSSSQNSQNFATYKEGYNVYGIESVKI
T1 sequence (P42263 29-894 isoform P42263-2 limits assumed): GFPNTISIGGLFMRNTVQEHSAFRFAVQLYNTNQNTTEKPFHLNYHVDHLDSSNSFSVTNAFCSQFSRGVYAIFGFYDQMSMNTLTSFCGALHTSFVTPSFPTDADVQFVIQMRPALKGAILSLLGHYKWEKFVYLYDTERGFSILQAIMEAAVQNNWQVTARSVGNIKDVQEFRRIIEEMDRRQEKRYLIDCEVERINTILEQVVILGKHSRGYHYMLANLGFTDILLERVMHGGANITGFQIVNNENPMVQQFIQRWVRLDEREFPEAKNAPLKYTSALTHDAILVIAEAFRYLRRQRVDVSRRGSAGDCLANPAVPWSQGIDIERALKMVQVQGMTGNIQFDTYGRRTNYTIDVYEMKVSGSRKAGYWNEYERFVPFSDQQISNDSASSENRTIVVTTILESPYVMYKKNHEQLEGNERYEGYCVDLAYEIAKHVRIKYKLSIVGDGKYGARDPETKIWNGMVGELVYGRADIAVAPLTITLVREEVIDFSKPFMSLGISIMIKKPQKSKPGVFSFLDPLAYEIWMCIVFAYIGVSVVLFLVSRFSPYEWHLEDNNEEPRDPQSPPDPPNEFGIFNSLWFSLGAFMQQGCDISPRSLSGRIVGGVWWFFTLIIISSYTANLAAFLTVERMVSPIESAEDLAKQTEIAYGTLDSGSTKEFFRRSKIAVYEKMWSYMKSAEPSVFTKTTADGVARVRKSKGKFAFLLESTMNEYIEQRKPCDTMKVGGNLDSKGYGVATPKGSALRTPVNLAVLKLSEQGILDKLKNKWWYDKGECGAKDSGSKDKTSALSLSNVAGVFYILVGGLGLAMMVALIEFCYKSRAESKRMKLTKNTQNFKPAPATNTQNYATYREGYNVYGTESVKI
Method: as §1
(§5) The IC50 values were examined using GraphPad Prism software 9.5.0.730 (x64) (Table S6), which confirmed these findings. The IC50 values of TC substances were calculated by standardizing the peak current amplitudes using data obtained from 8–10 cells. Following a 500 ms exposure to the compounds, the cells were rinsed with glutamate for 20 s. Next, a solution containing just glutamate at a concentration of 10 mM was administered, and the resulting immediate induced electrical current was measured and documented (Figure 3).
as §2, §3
as §4, with “CsOH.” for “CsOH. Using double barrel glass (theta tube), glutamate and the solutions of choice were rapidly administered, and the theta tube was mounted on a high-speed piezo solution switcher (Automate Scientific, Berkeley, CA, USA).”

[3] = target: T2, GluA2 (Homo sapiens, UniProt P42262); experiment: Whole-cell patch-clamp recordings of homomeric GluA2 AMPAR in transfected HEK293T cells; conditions: for Amplitude (glutamate plus TC compound): 10 mM glutamate + TC compound (12 µM optimal concentration), HEK293T, -60 mV, pH 7.4, 22 °C, mean ± SEM; for Amplitude (glutamate plus TC compound) / Amplitude, applying glutamate alone after TC compound: n = 10; for Amplitude, applying glutamate alone after TC compound: 10 mM glutamate alone after 20 s wash following the TC compound; for A/AI: ratio of current with glutamate alone (A) to inhibited current after TC compound (AI); for t deact: weighted tau of deactivation, 10 mM glutamate for 1 ms, glutamate alone 2.3±0.1; for t deact / t des: with TC compound; for t des: weighted tau of desensitization, 10 mM glutamate 500 ms, glutamate alone 2.6±0.1
T2 construct: expressed in transfected cells; host or cells: HEK293T
T2 sequence (P42262 25-883 isoform P42262-2 limits assumed, species assumed): as the sequence (P42262 25-883 isoform P42262-2 limits assumed) above
Method: as §1, §5, §2, §3
as §4, with “CsOH.” for “CsOH. Using double barrel glass (theta tube), glutamate and the solutions of choice were rapidly administered, and the theta tube was mounted on a high-speed piezo solution switcher (Automate Scientific, Berkeley, CA, USA).”

[4] = target: T3, GluA1/2 (Homo sapiens, UniProt P42261+P42262); experiment: Whole-cell patch-clamp recordings of heteromeric GluA1/2 AMPAR in transfected HEK293T cells; conditions: for Amplitude (glutamate plus TC compound): 10 mM glutamate + TC compound (12 µM optimal concentration), HEK293T, -60 mV, pH 7.4, 22 °C, mean ± SEM; for Amplitude (glutamate plus TC compound) / Amplitude, applying glutamate alone after TC compound: n = 10; for Amplitude, applying glutamate alone after TC compound: 10 mM glutamate alone after 20 s wash following the TC compound; for A/AI: ratio of current with glutamate alone (A) to inhibited current after TC compound (AI); for t deact: weighted tau of deactivation, 10 mM glutamate for 1 ms, glutamate alone 2.5±0.3; for t deact / t des: with TC compound; for t des: weighted tau of desensitization, 10 mM glutamate 500 ms, glutamate alone 5.2±0.5
T3 construct: expressed in transfected cells; host or cells: HEK293T
T3 sequence (P42261 19-906 isoform P42261-2 limits assumed): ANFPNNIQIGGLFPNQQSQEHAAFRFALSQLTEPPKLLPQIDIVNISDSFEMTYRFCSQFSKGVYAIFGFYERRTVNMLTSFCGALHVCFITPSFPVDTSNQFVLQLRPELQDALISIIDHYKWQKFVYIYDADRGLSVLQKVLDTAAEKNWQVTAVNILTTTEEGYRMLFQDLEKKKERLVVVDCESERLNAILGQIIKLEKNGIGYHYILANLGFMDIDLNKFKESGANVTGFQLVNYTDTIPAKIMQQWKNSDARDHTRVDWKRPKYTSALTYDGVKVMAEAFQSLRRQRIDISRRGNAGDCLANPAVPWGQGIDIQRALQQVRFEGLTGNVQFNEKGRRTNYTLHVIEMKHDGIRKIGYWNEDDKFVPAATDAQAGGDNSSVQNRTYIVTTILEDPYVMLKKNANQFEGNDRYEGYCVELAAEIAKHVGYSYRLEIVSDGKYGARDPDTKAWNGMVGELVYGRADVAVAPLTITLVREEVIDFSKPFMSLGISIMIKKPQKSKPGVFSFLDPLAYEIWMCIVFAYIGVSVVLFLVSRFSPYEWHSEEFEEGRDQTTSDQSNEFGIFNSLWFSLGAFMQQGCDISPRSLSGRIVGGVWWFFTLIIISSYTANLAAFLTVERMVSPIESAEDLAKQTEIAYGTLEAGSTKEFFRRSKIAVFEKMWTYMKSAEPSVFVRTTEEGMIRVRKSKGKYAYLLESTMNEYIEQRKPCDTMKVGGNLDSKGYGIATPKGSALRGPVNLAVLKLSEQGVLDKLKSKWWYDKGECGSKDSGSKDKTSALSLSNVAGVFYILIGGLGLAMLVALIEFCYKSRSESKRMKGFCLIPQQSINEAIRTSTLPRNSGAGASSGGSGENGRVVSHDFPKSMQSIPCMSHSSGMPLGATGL
T3 sequence (P42262 25-883 isoform P42262-2 limits assumed): as the sequence (P42262 25-883 isoform P42262-2 limits assumed) above
Method: as §1, §5, §2, §3
as §4, with “CsOH.” for “CsOH. Using double barrel glass (theta tube), glutamate and the solutions of choice were rapidly administered, and the theta tube was mounted on a high-speed piezo solution switcher (Automate Scientific, Berkeley, CA, USA).”

[5] = Table S6, peak current amplitudes, 8-10 cells, GraphPad Prism fit, read-out: IC50
[6] = Table S6, read-out: Log IC50 (converted)

`COc1ccc(-c2nc(C(=O)Nc3ccc(OC)c(OC)c3)cs2)cc1` [TC-1] was tested, and the “reduction in τw des” value [1] was “roughly twofold”, the “increase in τw deact” value [1] was “around 2 fold” and the “decrease in AMPAR subunit activity (inhibition of the whole-cell current)” value [1] was 5 fold. The “Amplitude (glutamate plus TC compound)” value [2] was 102±13 pA, the “Amplitude, applying glutamate alone after TC compound” value (shortened to “Amplitude, applying glutamate alone”) [2] was 491±61 pA and the IC50 [2, 5] was 3.38 µM. It also gave an IC50 [2, 6] of 3.39 µM, an A/AI [2] of 4.95±0.19 and a t deact [2] of 5.6 ± 0.4 ms. For the same compound, the t des [2] was 1.2 ± 0.3 ms, the “Amplitude (glutamate plus TC compound)” value [3] was 233±20 pA and the “Amplitude, applying glutamate alone” value [3] was 1137±97 pA. It also gave an IC50 [3, 6] of 3.31 µM, an A/AI [3] of 5.03±0.04 and an IC50 ([3]; read-out: IC50) of 3.3 µM. The t deact [3] was 5.9 ± 0.2 ms, the t des [3] was 1.1 ± 0.1 ms and the “decrease in τw des” value [4] was “around 1.3 fold”. For the same compound, the “Amplitude (glutamate plus TC compound)” value [4] was 126±12 pA, the “Amplitude, applying glutamate alone” value [4] was 604±62 pA and the IC50 [4, 5] was 3.36 µM. The IC50 [4, 6] was 3.39 µM, the A/AI [4] was 4.98±0.06 and the t deact [4] was 5.8 ± 0.4 ms. The t des [4] was 3.9 ± 0.4 ms.

`COc1ccc(-c2nc(C(=O)Nc3ccccc3)cs2)cc1` [TC-3] was tested, and the “reduction in τw des” value [1] was “little effect”, the “increase in τw deact” value [1] was “weaker effects” and the “decrease in AMPAR subunit activity (inhibition of the whole-cell current)” value [1] was roughly 3 fold. The “Amplitude (glutamate plus TC compound)” value [2] was 159±25 pA, the “Amplitude, applying glutamate alone” value [2] was 456±76 pA and the IC50 [2, 5] was 5.53 µM. The IC50 [2, 6] was 5.5 µM, the A/AI [2] was 3.06±0.07 and the t deact [2] was 3.4 ± 0.4 ms. For the same compound, the t des [2] was 1.8 ± 0.2 ms, the “Amplitude (glutamate plus TC compound)” value [3] was 363±37 pA and the “Amplitude, applying glutamate alone” value [3] was 1078±112 pA. It also gave an IC50 [3, 5] of 5.5 µM, an IC50 [3, 6] of 5.5 µM and an A/AI [3] of 3.17±0.02. For the same compound, the t deact [3] was 3.5 ± 0.3 ms, the t des [3] was 1.7 ± 0.1 ms and the “Amplitude (glutamate plus TC compound)” value [4] was 197±24 pA. The “Amplitude, applying glutamate alone” value [4] was 565±72 pA, the IC50 [4, 5] was 5.64 µM and the IC50 [4, 6] was 5.62 µM. It also gave an A/AI [4] of 3.09±0.02, a t deact [4] of 3.3 ± 0.3 ms and a t des [4] of 4.2 ± 0.3 ms.

`COc1ccc(-c2nc(C(=O)Nc3ccc(C(C)(C)C)cc3)cs2)cc1` [TC-4] was tested, and the “reduction in τw des” value [1] was “little effect”, the “increase in τw deact” value [1] was “weaker effects” and the “decrease in AMPAR subunit activity (inhibition of the whole-cell current)” value [1] was roughly 2.5 fold. The “Amplitude (glutamate plus TC compound)” value [2] was 183±36 pA, the “Amplitude, applying glutamate alone” value [2] was 460±95 pA and the IC50 [2, 5] was 5.64 µM. The IC50 [2, 6] was 5.62 µM, the A/AI [2] was 2.59±0.05 and the t deact [2] was 3.3 ± 0.3 ms. For the same compound, the t des [2] was 1.9 ± 0.2 ms, the “Amplitude (glutamate plus TC compound)” value [3] was 393±43 pA and the “Amplitude, applying glutamate alone” value [3] was 1110±101 pA. The IC50 [3, 5] was 5.6 µM, the IC50 [3, 6] was 5.62 µM and the A/AI [3] was 2.91±0.07. For the same compound, the t deact [3] was 3.4 ± 0.2 ms, the t des [3] was 1.8 ± 0.1 ms and the “Amplitude (glutamate plus TC compound)” value [4] was 221±26 pA. For the same compound, the “Amplitude, applying glutamate alone” value [4] was 609±77 pA, the IC50 [4, 5] was 5.78 µM and the IC50 [4, 6] was 5.75 µM. It also gave an A/AI [4] of 2.86±0.02, a t deact [4] of 3.2 ± 0.4 ms and a t des [4] of 4.4 ± 0.3 ms.
